Assay results from US11000033B2, “Ketone or oxime compound, and herbicide” (NISSAN CHEMICAL CORPORATION, priority 2014, dated 2021).

Tests used:
Format in all cases: in vivo
[1] = tested on: beet; test: Test Example 5: effect on crop by foliage application, plastic box (symbol f); conditions: 320 g/ha, 3 weeks after application
Method in brief: (§1)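 Box culture: sterile diluvial soil, seeds spot-sown, ~1.5 cm cover, raised under glass at 25–30° C.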

[2] = tested on: Amaranthus retroflexus; test: Test Example 5: herbicidal effect by foliage application, plastic box (symbol N); conditions: 320 g/ha, 3 weeks after application
Method in brief: (§2)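 Effect is rated 3 weeks after a foliar spray of water-diluted emulsion concentrate at a predetermined herbicide amount. Plants had grown 14 days in a 25° C. to 30° C. greenhouse from seed in sterilized diluvial soil.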

[3] = tested on: Stellaria media; test: Test Example 4: herbicidal effect by soil treatment (symbol P); conditions: application herbicide amount 320 g/ha
Method in brief: (§3)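 Seeds were sown in sterilized diluvial soil, covered with about 1.5 cm of soil, and the soil surface was sprayed with a water-diluted emulsion of the compound at a predetermined rate. Plants grew in a greenhouse at 25° C. to 30° C.; effects were scored visually 3 weeks after application.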

[4] = tested on: Apera spica-venti; test: Test Example 4: herbicidal effect by soil treatment (symbol L); conditions: application herbicide amount 320 g/ha
Method in brief: as §3

[5] = tested on: Apera spica-venti; test: Test Example 5: herbicidal effect by foliage application, plastic box (symbol L); conditions: 320 g/ha, 3 weeks after application
Method in brief: as §2

[6] = tested on: Scirpus juncoides; test: Test Example 2: herbicidal activity, application during weed generation in submerged conditions (symbol B); conditions: Table 23; application herbicide amount 320 g/ha; grade 0-5 by criteria of Test Example 1
Method in brief: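 Steps: fill pots with alluvial soil; add water to 4 cm depth; co-sow the three weeds; grow at 25° C. to 30° C. under glass; at 1–2 leaves, dose the floodwater with diluted emulsion; rate damage visually after 3 weeks.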

[7] = tested on: wheat; test: Test Example 4: effect on crop by soil treatment (symbol e); conditions: application herbicide amount 320 g/ha
Method in brief: (§4)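 The test used sterilized diluvial soil. Seed was set down in spots and overlaid with about 1.5 cm of soil before growth in a greenhouse kept at 25° C. to 30° C.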

[8] = tested on: rapeseed; test: Test Example 5: effect on crop by foliage application, plastic box (symbol g); conditions: 320 g/ha, 3 weeks after application
Method in brief: as §1

[9] = tested on: Veronica persica; test: Test Example 4: herbicidal effect by soil treatment (symbol R); conditions: application herbicide amount 320 g/ha
Method in brief: as §3

[10] = tested on: Avena fatua; test: Test Example 5: herbicidal effect by foliage application, plastic box (symbol I); conditions: 320 g/ha, 3 weeks after application
Method in brief: as §2

[11] = tested on: Echinochloa crus-galli var. crus-galli; test: Test Example 5: herbicidal effect by foliage application, plastic box (symbol H); conditions: 320 g/ha, 3 weeks after application
Method in brief: as §2

[12] = tested on: soybean; test: Test Example 4: effect on crop by soil treatment (symbol d); conditions: application herbicide amount 320 g/ha
Method in brief: as §4

[13] = tested on: Lolium multiflorum Lam.; test: Test Example 5: herbicidal effect by foliage application, plastic box (symbol K); conditions: 320 g/ha, 3 weeks after application
Method in brief: as §2

[14] = tested on: corn; test: Test Example 4: effect on crop by soil treatment (symbol c); conditions: application herbicide amount 320 g/ha
Method in brief: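 Grown at 25° C. to 30° C. in a greenhouse, the crops came from seed sown spot-wise in sterilized diluvial soil under roughly 1.5 cm of covering soil.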

[15] = tested on: Echinochloa crus-galli var. crus-galli; test: Test Example 3: herbicidal effect by foliage application, Wagner pot (symbol H); conditions: application herbicide amount 320 g/ha
Method in brief: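 Post-emergence, paddy-type test: seedlings 14 d old in shallow-flooded (0.1–0.5 cm) alluvial soil, 25–30 °C greenhouse. Emulsion diluted to target rate, sprayed on leaves. Read-out: visual effect on each species at 3 weeks, per set criteria.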

Row | SMILES | f: beet, effect on crop grade [1] | N: Amaranthus retroflexus, herbicidal effect grade [2] | P: Stellaria media, herbicidal effect grade [3] | L: Apera spica-venti, herbicidal effect grade [4] | L: Apera spica-venti, herbicidal effect grade [5] | Herbicidal effect grade, B: Scirpus juncoides [6] | e: wheat, effect on crop grade [7] | g: rapeseed, effect on crop grade [8] | R: Veronica persica, herbicidal effect grade [9] | I: Avena fatua, herbicidal effect grade [10] | H: Echinochloa crus-galli var. crus-galli, herbicidal effect grade [11] | d: soybean, effect on crop grade [12] | K: Lolium multiflorum Lam., herbicidal effect grade [13] | c: corn, effect on crop grade [14] | herbicidal effect on H (Echinochloa crus-galli var. crus-galli), grade 0-5 [15]
1 | CON=C(C)C1CC(O)=C(c2c(C)cc(C)cc2C)C1=O (mixture of isomers) [3-002] | 0 (Herbicidal ratio of 5% or lower (almost no effect)) | 0 (Herbicidal ratio of 5% or lower (almost no effect)) | 0 (Herbicidal ratio of 5% or lower (almost no effect)) | 0 (Herbicidal ratio of 5% or lower (almost no effect)) | 0 (Herbicidal ratio of 5% or lower (almost no effect)) | 0 (Herbicidal ratio of 5% or lower (almost no effect)) | 0 (Herbicidal ratio of 5% or lower (almost no effect)) | 0 (Herbicidal ratio of 5% or lower (almost no effect)) | 0 (Herbicidal ratio of 5% or lower (almost no effect)) | 0 (Herbicidal ratio of 5% or lower (almost no effect)) | 1 (Herbicidal ratio of 5% or higher and lower than 20%) | 0 (Herbicidal ratio of 5% or lower (almost no effect)) | 1 (Herbicidal ratio of 5% or higher and lower than 20%) | 0 (Herbicidal ratio of 5% or lower (almost no effect)) | 0 (Herbicidal ratio of 5% or lower (almost no effect))
2 | CC#Cc1cc(C)c(C2=C(O)CC(CC(C)=NOC)C2=O)c(CC)c1 (mixture of isomers) [6-006] |  | 0 (Herbicidal ratio of 5% or lower (almost no effect)) | 0 (Herbicidal ratio of 5% or lower (almost no effect)) | 5 (Herbicidal ratio of 90% or more (almost completely withered)) | 3 (Herbicidal ratio of 40% or higher and lower than 70%) | 5 (Herbicidal ratio of 90% or more (almost completely withered)) | 5 (Herbicidal ratio of 90% or more (almost completely withered)) | 4 (Herbicidal ratio of 70% or higher and lower than 90%) | 2 (Herbicidal ratio of 20% or higher and lower than 40%) | 1 (Herbicidal ratio of 5% or higher and lower than 20%) | 4 (Herbicidal ratio of 70% or higher and lower than 90%) | 0 (Herbicidal ratio of 5% or lower (almost no effect)) | 4 (Herbicidal ratio of 70% or higher and lower than 90%) | 5 (Herbicidal ratio of 90% or more (almost completely withered)) | 5 (Herbicidal ratio of 90% or more (almost completely withered))
3 | C=Cc1cc(C)c(C2=C(O)CC(CC(C)=NOC)C2=O)c(C)c1 (mixture of isomers) [6-031] | 0 (Herbicidal ratio of 5% or lower (almost no effect)) | 0 (Herbicidal ratio of 5% or lower (almost no effect)) | 0 (Herbicidal ratio of 5% or lower (almost no effect)) | 0 (Herbicidal ratio of 5% or lower (almost no effect)) | 4 (Herbicidal ratio of 70% or higher and lower than 90%) | 0 (Herbicidal ratio of 5% or lower (almost no effect)) | 0 (Herbicidal ratio of 5% or lower (almost no effect)) | 3 (Herbicidal ratio of 40% or higher and lower than 70%) | 0 (Herbicidal ratio of 5% or lower (almost no effect)) | 5 (Herbicidal ratio of 90% or more (almost completely withered)) | 5 (Herbicidal ratio of 90% or more (almost completely withered)) | 0 (Herbicidal ratio of 5% or lower (almost no effect)) | 5 (Herbicidal ratio of 90% or more (almost completely withered)) | 0 (Herbicidal ratio of 5% or lower (almost no effect)) | 3 (Herbicidal ratio of 40% or higher and lower than 70%)
4 | CON=C(C)CC1CC(O)=C(c2c(C)cc(-c3cccc(Cl)c3)cc2C)C1=O (mixture of isomers) [6-034] | 0 (Herbicidal ratio of 5% or lower (almost no effect)) | 3 (Herbicidal ratio of 40% or higher and lower than 70%) | 0 (Herbicidal ratio of 5% or lower (almost no effect)) | 5 (Herbicidal ratio of 90% or more (almost completely withered)) | 5 (Herbicidal ratio of 90% or more (almost completely withered)) | 5 (Herbicidal ratio of 90% or more (almost completely withered)) | 0 (Herbicidal ratio of 5% or lower (almost no effect)) | 4 (Herbicidal ratio of 70% or higher and lower than 90%) | 4 (Herbicidal ratio of 70% or higher and lower than 90%) | 5 (Herbicidal ratio of 90% or more (almost completely withered)) | 5 (Herbicidal ratio of 90% or more (almost completely withered)) | 0 (Herbicidal ratio of 5% or lower (almost no effect)) | 4 (Herbicidal ratio of 70% or higher and lower than 90%) | 1 (Herbicidal ratio of 5% or higher and lower than 20%) | 5 (Herbicidal ratio of 90% or more (almost completely withered))
5 | CON=C(C)CC1CC(O)=C(c2c(C)cc(C(=O)OC)cc2C)C1=O (stereo not drawn) [6-023] |  | 0 (Herbicidal ratio of 5% or lower (almost no effect)) | 0 (Herbicidal ratio of 5% or lower (almost no effect)) | 4 (Herbicidal ratio of 70% or higher and lower than 90%) | 4 (Herbicidal ratio of 70% or higher and lower than 90%) |  | 0 (Herbicidal ratio of 5% or lower (almost no effect)) | 3 (Herbicidal ratio of 40% or higher and lower than 70%) | 0 (Herbicidal ratio of 5% or lower (almost no effect)) | 5 (Herbicidal ratio of 90% or more (almost completely withered)) | 5 (Herbicidal ratio of 90% or more (almost completely withered)) | 0 (Herbicidal ratio of 5% or lower (almost no effect)) | 5 (Herbicidal ratio of 90% or more (almost completely withered)) | 1 (Herbicidal ratio of 5% or higher and lower than 20%) | 5 (Herbicidal ratio of 90% or more (almost completely withered))
